From patent US7696201B2, “Modulators of muscarinic receptors” (Vertex Pharmaceuticals Incorporated, priority 2006, dated 2010) come the findings set out here.

What all share (type): cell-based
The target of one assay is T1, M4 muscarinic receptor (Homo sapiens, UniProt P08173).
T1 construct: expressed in transfected cells; host or cells: CHO (M4-CHO)
T1 sequence (P08173 1-479): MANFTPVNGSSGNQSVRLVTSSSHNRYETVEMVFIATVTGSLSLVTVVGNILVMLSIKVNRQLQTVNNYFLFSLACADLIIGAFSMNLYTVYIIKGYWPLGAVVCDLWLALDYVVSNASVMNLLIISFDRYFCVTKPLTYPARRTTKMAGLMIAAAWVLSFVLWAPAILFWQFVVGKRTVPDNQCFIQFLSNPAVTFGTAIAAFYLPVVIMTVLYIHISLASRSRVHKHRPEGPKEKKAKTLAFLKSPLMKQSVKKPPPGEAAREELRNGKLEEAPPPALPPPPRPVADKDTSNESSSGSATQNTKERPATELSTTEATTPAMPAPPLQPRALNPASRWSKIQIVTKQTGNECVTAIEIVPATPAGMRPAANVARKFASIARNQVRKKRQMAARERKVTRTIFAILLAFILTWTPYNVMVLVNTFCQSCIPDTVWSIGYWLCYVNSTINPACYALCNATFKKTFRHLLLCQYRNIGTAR
As to the kind of experiment: Functional mobilization of intracellular calcium (FLIPR), M4-CHO cells. The conditions noted are these: for Emax: 100% efficacy is the maximum response obtained with the Carbachol control; for M4 Activity: CHO cells expressing M4, calcium mobilization. On the procedure: (§1) Functional Mobilization of Intracellular Calcium to Determine Muscarinic Receptor Activity:
(§2) CHO cells expressing muscarinic receptors (M1 to M5) are grown as monolayers in tissue culture flasks at 37° C. in a humidified atmosphere containing 5% CO2 and passaged every 3-5 days. The growth media is Dulbecco's modified eagles medium (DMEM, Gibco Cat# 12430-054), containing 25 mM Hepes and supplemented with Fetal Bovine Serum (Hyclone, cat# SH30071.03), 0.1 mM of MEM non-essential amino acids (GIBCO, Cat# 11140-050), 1 mM MEM Sodium Pyruvate (GIBCO Cat# 11360-070) and 100 units/ml of Penicillin G and 100 μg/ml of Streptomycin (GIBCO Cat# 15140-122). The recombinant muscarinic receptor cell lines are grown under antibiotic pressure with media containing 25 μg/ml zeocin and 500 μg/ml G418 (M1-CHO), 4 μg/ml puromycin, 50 μg/ml zeocin and 2.5 μg/ml blasticidin (M2 and M4-CHO) or 50 μg/ml zeocin and 4 μg/ml puromycin (M3 and M5-CHO).
(§3) Cells are harvested at 80-90% confluence using Versene (GIBCO Cat# 15040-066), collected by centrifugation and seeded 18-24 hours prior to running the calcium assay at a density of 5,000-10,000 cells/well in […], clear-bottomed 384-well plates (BD Biocoat, poly-D-lysine, Cat#356663). The day of the experiment, the cells are washed with a plate washer (Bioteck Instruments, ELX 405) using Bath 1 buffer (140-mM NaCl, 4.5-mM KCl, 2-mM CaCl2, 1-mM MgCl2, 10-mM Hepes-Na, 10-mM Glucose, pH 7.4, with NaOH) containing 1 mM Probenecid. Next, the calcium dye Fluo-3 (25 μl/well of Fluo-3 AM at 4 μM, Molecular Probes F-1241, in Bath 1 buffer containing 1 mM Probenecid) is added to the 25 μl of Bath 1 remaining in each well after the plate wash and the dye is loaded at 37° C. in the tissue culture incubator for 60-90 min. The fluorescent dye is removed using the plate washer with Bath 1 containing 1 mM Probenecid, leaving 25 μl/well of this solution after the wash. Alternatively, cells can be loaded with the calcium indicator from Molecular Devices (Calcium 3 Assay Reagents, Cat # R7181) adding 5 μl of a 5× solution dye in Bath 1 containing 1 mM Probenecid (10 ml per dye flask cat# R7182 to generate a solution 20×) to 20 μl of the same buffer. After loading for 60 min, the experiment can be run without having to remove the dye.
(§4) Compounds are prepared at a 2× fold concentration in a 96-well plate (round bottom, Costar Corning cat# 3656), by reconstituting the pre-spotted compounds in bath 1 containing 1 mM probenecid. The final concentration DMSO is 0.5%, and the amount of DMSO is normalized across the assay plate. To determine an agonist action of the compounds on muscarinic receptors, the reconstituted compounds are added (25 μl compound/well) to the cell assay plate (containing 25 μl/well) using the multi-channel robotic system of the FLIPR 3 Instrument (Molecular Devices, Sunnyvale, Calif.). To determine a functional inhibitory action of the compounds on muscarinic receptors, the reconstituted compounds are added (25 μl compound/well) to the assay plate and pre-incubated for 15 min prior to adding 25 μl of Carbachol at 3× the EC80 for each muscarinic subtype. Alternatively, the compounds can be co-applied simultaneously with the agonist. In both assay modes, the fluorescence is recorded for 60 sec (excitation wavelength is […] and emission wavelength 540 nm) using the FLIPR 3 instrument.
(§5) The potency, efficacy and selectivity of the muscarinic compounds were evaluated by screening the compound activity across the whole family (M1 to M5 cells). Compounds were also screened for activity on other proteins such as other GPCRs and ion channels to determine selectivity on M4 receptors.
(§6) Examples of activities and efficacies of the muscarinic compounds of formulae (I, Ia, Ib, Ic, and Id) on modulating M1 and M4 receptors are shown below in Table 3. […]
(Calcium flux is commonly read through the fluorescence of an indicator in the cells.)

The target in the next assay is T2, M3 muscarinic receptor (Homo sapiens, UniProt P20309).
T2 construct: expressed in transfected cells; host or cells: CHO (M3-CHO)
The assay is described as follows: Functional mobilization of intracellular calcium (FLIPR), M3-CHO cells. The note with it: for Emax: 100% efficacy is the maximum response obtained with the Carbachol control; for M3 Activity: CHO cells expressing M3, calcium mobilization. Here is the method: as §1, §2, §3, §4, §5, §6

In the next assay the target is T3, M1 muscarinic receptor (Homo sapiens, UniProt P11229).
T3 construct: expressed in transfected cells; host or cells: CHO (M1-CHO)
T3 sequence (P11229 1-460): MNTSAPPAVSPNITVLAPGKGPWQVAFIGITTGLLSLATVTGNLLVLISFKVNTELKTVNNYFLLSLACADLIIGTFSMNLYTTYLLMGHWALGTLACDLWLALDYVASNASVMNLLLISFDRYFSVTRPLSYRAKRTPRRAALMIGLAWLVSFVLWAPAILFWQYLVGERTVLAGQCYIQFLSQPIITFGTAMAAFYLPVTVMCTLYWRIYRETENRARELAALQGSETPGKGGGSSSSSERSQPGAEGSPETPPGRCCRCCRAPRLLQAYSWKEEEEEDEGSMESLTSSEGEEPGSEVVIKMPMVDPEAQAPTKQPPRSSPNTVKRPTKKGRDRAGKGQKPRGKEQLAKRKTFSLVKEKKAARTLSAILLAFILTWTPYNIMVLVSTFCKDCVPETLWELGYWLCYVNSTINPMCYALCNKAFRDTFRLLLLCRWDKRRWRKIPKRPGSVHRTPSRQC
The assay is described as follows: Functional mobilization of intracellular calcium (FLIPR), M1-CHO cells. The conditions noted are these: for Emax: 100% efficacy is the maximum response obtained with the Carbachol control; for M1 Activity: CHO cells expressing M1, calcium mobilization. Here is the method:
as §1, §2, §3, §4, §5, §6

In a further assay the target is T4, M2 muscarinic receptor (Homo sapiens, UniProt P08172).
T4 construct: expressed in transfected cells; host or cells: CHO (M2-CHO)
T4 sequence (P08172 1-466): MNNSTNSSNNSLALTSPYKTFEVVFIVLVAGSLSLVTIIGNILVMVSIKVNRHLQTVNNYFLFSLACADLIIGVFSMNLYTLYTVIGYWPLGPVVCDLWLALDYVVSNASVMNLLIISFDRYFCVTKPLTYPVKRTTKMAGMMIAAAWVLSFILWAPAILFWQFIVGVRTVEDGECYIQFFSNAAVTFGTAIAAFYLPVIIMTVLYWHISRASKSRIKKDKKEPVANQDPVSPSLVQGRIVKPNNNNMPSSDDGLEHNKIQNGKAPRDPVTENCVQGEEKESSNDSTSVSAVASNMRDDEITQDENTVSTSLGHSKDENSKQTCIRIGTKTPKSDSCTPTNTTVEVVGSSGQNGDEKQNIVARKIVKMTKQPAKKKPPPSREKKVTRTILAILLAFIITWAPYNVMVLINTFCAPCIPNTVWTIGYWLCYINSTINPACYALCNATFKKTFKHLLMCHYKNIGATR
The assay is described as follows: Functional mobilization of intracellular calcium (FLIPR), M2-CHO cells. The conditions noted are these: for Emax: 100% efficacy is the maximum response obtained with the Carbachol control; for M2 Activity: CHO cells expressing M2, calcium mobilization. Here is the method: as §1, §2, §3, §4, §5, §6

T2 sequence (P20309 whole entry): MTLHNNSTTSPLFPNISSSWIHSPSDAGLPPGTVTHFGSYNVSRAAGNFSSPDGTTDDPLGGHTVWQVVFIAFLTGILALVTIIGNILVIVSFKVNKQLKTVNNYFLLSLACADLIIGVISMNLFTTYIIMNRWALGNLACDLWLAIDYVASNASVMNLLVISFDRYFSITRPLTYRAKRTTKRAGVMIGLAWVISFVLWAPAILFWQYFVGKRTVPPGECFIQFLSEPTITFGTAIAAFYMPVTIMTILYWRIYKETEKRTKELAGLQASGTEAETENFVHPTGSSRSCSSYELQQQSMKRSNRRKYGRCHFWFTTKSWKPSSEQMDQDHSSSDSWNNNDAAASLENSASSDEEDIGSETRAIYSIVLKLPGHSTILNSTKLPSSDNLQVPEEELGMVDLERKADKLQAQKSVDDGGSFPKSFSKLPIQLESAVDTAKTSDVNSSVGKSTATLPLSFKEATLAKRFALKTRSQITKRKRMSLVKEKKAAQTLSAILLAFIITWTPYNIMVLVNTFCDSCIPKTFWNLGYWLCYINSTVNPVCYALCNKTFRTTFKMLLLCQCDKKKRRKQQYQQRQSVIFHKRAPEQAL

A word on the Emax: it is the size of the effect at its maximum, as opposed to the concentration needed. Turning to `CC(C)CCN1CCC2(CC1)OC(=O)Nc1ccccc12` [Compound 76, 1′-isopentylspiro[benzo[d][1,3]oxazine-4,4′-piperidin]-2(1H)-one], on M4 muscarinic receptor, the Emax was 25 to 100% and the “M4 Activity” value is recorded as “+++ (activity was measured to be less than 2.0 μM)”. Also, at M3 muscarinic receptor, the maximum response (Emax) is below 25% and the “M3 Activity” value is on record as “+ (activity was measured to be greater than 5.0 μM)”. Also, at M1 muscarinic receptor, the maximal effect (Emax) was 25 to 100% and the “M1 Activity” value is recorded as “+++ (activity was measured to be less than 2.0 μM)”. At M2 muscarinic receptor, the Emax was in the range of 25 to 100% and the “M2 Activity” value is “+ (activity was measured to be greater than 5.0 μM)”.

As to `CCOC(=O)N1CCC(CN2CCC3(CC2)OC(=O)Nc2ccccc23)CC1` [Compound 13, ethyl-4-((2-oxo-1,2-dihydrospiro[benzo[d][1,3]oxazine-4,4′-piperidine]-1′-yl)methyl)piperidine-1-carboxylate], on M4 muscarinic receptor, the Emax lay in the range of 25 to 100% and the “M4 Activity” value was “+++ (activity was measured to be less than 2.0 μM)”. Further, at M3 muscarinic receptor, the maximal effect (Emax) was 25 to 100% and the “M3 Activity” value is listed as “+++ (activity was measured to be less than 2.0 μM)”. Moreover, on M1 muscarinic receptor, the Emax lay within 25 to 100% and the “M1 Activity” value was “+++ (activity was measured to be less than 2.0 μM)”. On M2 muscarinic receptor, the Emax was in the range of 25 to 100% and the “M2 Activity” value was “+++ (activity was measured to be less than 2.0 μM)”.

`CCOC(=O)N1CCC(N2CCC3(CC2)OC(=O)Nc2ccccc23)CC1` [Compound 62]: at M4 muscarinic receptor, the maximal response (Emax) is 25 to 100% and the “M4 Activity” value is “+++ (activity was measured to be less than 2.0 μM)”. Also, at M3 muscarinic receptor, the maximum response (Emax) lay within 25 to 100% and the “M3 Activity” value is reported as “+++ (activity was measured to be less than 2.0 μM)”. For the same compound, at M1 muscarinic receptor, the Emax fell in the range of 25 to 100% and the “M1 Activity” value was “+++ (activity was measured to be less than 2.0 μM)”. For the same compound, at M2 muscarinic receptor, the Emax lay within 25 to 100% and the “M2 Activity” value is “+++ (activity was measured to be less than 2.0 μM)”.

As to `O=C1Nc2ccccc2C2(CCN(C3CCN(c4cnccn4)CC3)CC2)O1` [Compound 74, 1′-(1-(pyrazin-2-yl)piperidin-4-yl)spiro[benzo[d][1,3]oxazine-4,4′piperidin]-2(1H)-one], on M4 muscarinic receptor, the Emax fell in the range of 25 to 100% and the “M4 Activity” value is “+++ (activity was measured to be less than 2.0 μM)”. Moreover, at M3 muscarinic receptor, the Emax fell in the range of 25 to 100% and the “M3 Activity” value is recorded as “+ (activity was measured to be greater than 5.0 μM)”. For the same compound, at M1 muscarinic receptor, the Emax is above 100% and the “M1 Activity” value is recorded as “+++ (activity was measured to be less than 2.0 μM)”. On M2 muscarinic receptor, the Emax was 25 to 100% and the “M2 Activity” value is on record as “+++ (activity was measured to be less than 2.0 μM)”.

As to `O=C1Nc2ccccc2C2(CCN(C3CC4CCC(C4)C3)CC2)O1` (centres unmarked) [Compound 67, 1′-(bicyclo[3.2.1]octan-3-yl)spiro[benzo[d][1,3]oxazine-4,4′-piperidin]-2(1H)-one], at M4 muscarinic receptor, the Emax fell in the range of 25 to 100% and the “M4 Activity” value is listed as “+++ (activity was measured to be less than 2.0 μM)”. On M3 muscarinic receptor, the maximum response (Emax) is 25 to 100% and the “M3 Activity” value was “+ (activity was measured to be greater than 5.0 μM)”. Besides, on M1 muscarinic receptor, the maximal effect (Emax) lay within 25 to 100% and the “M1 Activity” value is recorded as “+++ (activity was measured to be less than 2.0 μM)”. At M2 muscarinic receptor, the Emax fell in the range of 25 to 100% and the “M2 Activity” value was “+++ (activity was measured to be less than 2.0 μM)”.

`O=C1Nc2ccccc2C2(CCN(CC3CCCOC3)CC2)O1` (centres unmarked) [Compound 11]: at M4 muscarinic receptor, the Emax is 25 to 100% and the “M4 Activity” value is “+++ (activity was measured to be less than 2.0 μM)”. For the same compound, on M3 muscarinic receptor, the maximal effect (Emax) was below 25% and the “M3 Activity” value is “+ (activity was measured to be greater than 5.0 μM)”. In addition, at M1 muscarinic receptor, the Emax was 25 to 100% and the “M1 Activity” value was “+++ (activity was measured to be less than 2.0 μM)”. Further, on M2 muscarinic receptor, the maximal effect (Emax) was in the range of 25 to 100% and the “M2 Activity” value is “+ (activity was measured to be greater than 5.0 μM)”.

Consider `O=C1Nc2ccccc2C2(CCN(C3CCCCCC3)CC2)O1` [Compound 5, 1′-cycloheptylspiro[benzo[d][1,3]oxazine-4,4′-piperidin]-2(1H)-one], for which, on M4 muscarinic receptor, the maximal effect (Emax) was 25 to 100% and the “M4 Activity” value is “+++ (activity was measured to be less than 2.0 μM)”. Also, on M3 muscarinic receptor, the Emax was below 25% and the “M3 Activity” value is “+ (activity was measured to be greater than 5.0 μM)”. At M1 muscarinic receptor, the Emax was 25 to 100% and the “M1 Activity” value is on record as “+++ (activity was measured to be less than 2.0 μM)”. In addition, at M2 muscarinic receptor, the Emax fell in the range of 25 to 100% and the “M2 Activity” value is listed as “+ (activity was measured to be greater than 5.0 μM)”.
